Results taken from US20260041774A1 (RepoCeuticals A/S, priority 2017, published 2026).
Where two headings read alike, the source gives them in different places. One block for each compound: values may come before it.

Legend:
rat = conditions: oral; cited from earlier work
[1] = system: oxidative damage in certain model systems; conditions: certain model systems (Oxenkrug 2005); cited from earlier work
[2] = cited from earlier work; for solubility of melatonin in DMSO: room temperature (20 or 25° C.)
[3] = Solubility of melatonin in aqueous solubilizer mixtures (overnight end-over-end rotation, filtration, HPLC); type: physicochemical; conditions: 20% (w/w) aqueous glycofurol, 25 °C, aqueous with cosolvent or surfactant or cyclodextrin, thermodynamic from solid
Description: Peaks were detected by UV absorption at 277 μm wavelength. […] To study the effect of adding DMSO to this medium, a medium consisting of 20% (w/w) glycofurol and 40% (w/w) DMSO in water was also prepared.

[4] = Experimental: The determination of what constitutes initial amount and final amount shall be made using the same experimental techniques. In the experiments presented below, initial and final amounts of degradation products were determined using HPLC as an exemplary measurement technique.
High pressure liquid chromatography (HPLC) elution profiles obtained from a 100×4.6 mm Phenomenex Kinetex column of XB-C18 silica (5 μm particle size) eluted with a linear gradient of solvent B (acetonitrile containing 0.1% v/v acetic acid) 10% to 50% in solvent A (water containing 0.1% v/v acetic acid) from 0.8 to 7.8 min, returning to 10% B at 8.8 min. Peaks were detected by UV absorption at […] wavelength. Overloading sample sizes were used to facilitate the detection of small amounts of breakdown products. […] (FIG. 1A) or 25° C. (FIG. 1B).
HPLC elution profiles were obtained as described for FIG. 1. […] (FIG. 2A) or 25° C. (FIG. 2B).
HPLC elution profiles were obtained as described for FIG. 1. […] (FIG. 3A) or 25° C. (FIG. 3B).

[5] = melatonin 10 mg/mL in 20% (w/w) aqueous glycofurol, 45 days at 25° C.
[6] = melatonin 10 mg/mL in 20% (w/w) glycofurol, 40% (w/w) DMSO in water, 45 days at 25° C.

Compound: C[S+](C)[O-] [DMSO, dimethyl sulfoxide]
LD50 (rat): 14500 mg/kg

Compound: CC(=O)NCCc1c[nH]c2ccc(O)cc12 [N-acetylserotonin]
protective effect against oxidative damage, times as strong as that of melatonin [1]: 5 to 20 times

Compound: CCO [ethanol]
LD50 (rat): 7060 mg/kg

solubility [3]: > 10 mg/mL
melatonin breakdown ([4]; 20% (w/w) glycofurol, 40% (w/w) DMSO in water, 45 days at 25° C.): no evidence of the melatonin breakdown
melatonin breakdown ([4]; 50% (w/w) DMSO, 45 days at 25° C.): no evidence of the melatonin breakdown
degradation peaks (8.1, 8.4 and 8.6 min) together, share of the recovered UV-absorbent material ([4]; 45 days, 10 mg/mL): 0.36%
melatonin peak at 6.0 min ([4]; melatonin 10 mg/mL in 20% (w/w) aqueous glycofurol, 45 days at 5° C.): 5871 absorption units
additional peak at 8.4 min not seen in the 5° C. sample [4, 5]: 8.314 absorption units
additional peak at 8.6 min not seen in the 5° C. sample [4, 5]: 5 absorption units
additional peak at […] not seen in the 5° C. sample [4, 5]: 7.973 absorption units
melatonin peak at 6.0 min [4, 5]: 5831 absorption units
melatonin peak at 6.0 min ([4]; melatonin 10 mg/mL in 20% (w/w) glycofurol, 40% (w/w) DMSO in water, 45 days at 5° C.): 6831 absorption units
additional peaks of UV-absorbent material [4, 6]: no additional peaks
melatonin peak at 6.0 min [4, 6]: 6851 absorption units
melatonin peak at 6.0 min ([4]; melatonin 10 mg/mL in 50% (w/w) aqueous DMSO, 45 days at 5° C.): 8771 absorption units
additional peaks ([4]; melatonin 10 mg/mL in 50% (w/w) aqueous DMSO, 45 days at 5° C. or 25° C.): No additional peaks
melatonin peak at 6.0 min ([4]; melatonin 10 mg/mL in 50% (w/w) aqueous DMSO, 45 days at 25° C.): 8771 absorption units
decline in the melatonin concentrations ([4]; solutions 1), 2) and 3), sealed tubes, 25° C., HPLC on days 0, 10, 17, 31 and 45): no significant decline
Compound: COc1ccc2[nH]cc(CCNC(C)=O)c2c1 [melatonin, N-acetyl-5-methoxytryptamine]
solubility of melatonin in ethanol ([2]; 20° C., EC SCCS/1315/10, 2010): 182 mg/mL
solubility of melatonin in ethanol/water (40/60 v/v) mixture ([2]; 20° C.): 64 mg/mL
solubility of melatonin in water ([2]; 20° C.): approximately 2 g/L
solubility of melatonin in water ([2]; 50° C.): ~5 mg/mL
solubility of melatonin in DMSO ([2]; source MedChem): ≤ 200 mM
solubility of melatonin in DMSO ([2]; source abcam): ≤ 100 mM
solubility of melatonin in DMSO ([2]; source tocris): ≤ 50 mM
